Measured values: patent US12486253B2, “Therapeutics for the degradation of mutant BRAF” (C4 THERAPEUTICS, INC., priority 2021, dated 2025)
Values joined by “and” are separate entries in the source; they are usually repeats but may differ in a detail not shown here. Equal values may be shown once. Read-outs that look alike come from different tables or passages of the source.

Target: BRAF V600E (Homo sapiens, UniProt P15056, V600E)
Assay: HiBiT cellular BRAF^V600E degradation assay
Type: cell-based
Details: for DC50: concentration at which 50% of total cellular BRAF^V600E is degraded; for Emax: read-out: HiBit 24 h Emax
[1] = A375.10 cells, 24 h, residual protein remaining in the cell

BRAF V600E, sequence (P15056 whole entry V600E): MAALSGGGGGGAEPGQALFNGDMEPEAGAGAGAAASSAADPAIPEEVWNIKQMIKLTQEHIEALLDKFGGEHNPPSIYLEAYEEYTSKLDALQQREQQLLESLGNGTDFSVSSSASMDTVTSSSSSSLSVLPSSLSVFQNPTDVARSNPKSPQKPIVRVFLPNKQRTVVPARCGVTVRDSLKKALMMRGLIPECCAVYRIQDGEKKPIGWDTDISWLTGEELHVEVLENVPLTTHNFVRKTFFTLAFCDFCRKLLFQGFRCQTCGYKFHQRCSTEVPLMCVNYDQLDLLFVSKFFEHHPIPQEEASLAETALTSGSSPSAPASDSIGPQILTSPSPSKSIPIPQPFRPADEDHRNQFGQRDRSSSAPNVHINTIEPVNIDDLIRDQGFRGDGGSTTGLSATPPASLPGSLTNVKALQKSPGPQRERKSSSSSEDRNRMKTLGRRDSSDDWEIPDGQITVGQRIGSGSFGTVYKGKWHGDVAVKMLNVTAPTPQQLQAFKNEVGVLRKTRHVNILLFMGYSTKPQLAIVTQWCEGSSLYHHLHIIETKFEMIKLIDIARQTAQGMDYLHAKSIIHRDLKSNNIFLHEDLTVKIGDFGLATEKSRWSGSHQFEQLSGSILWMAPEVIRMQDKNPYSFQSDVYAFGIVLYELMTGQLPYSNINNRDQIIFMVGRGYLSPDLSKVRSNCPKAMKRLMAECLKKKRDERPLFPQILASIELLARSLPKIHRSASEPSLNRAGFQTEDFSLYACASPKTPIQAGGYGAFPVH

| SMILES | DC50 (A375.10 cells, 24 h) [µM] | Emax [1] [%] | HiBit 24 h Emax [1] | Emax [%] |
| --- | --- | --- | --- | --- |
| CCN(C)S(=O)(=O)Nc1ccc(F)c(Oc2ccc3ncn([C@@H]4COC5(CCN(C(=O)CN6CCC(c7ccc(NC8CCC(=O)NC8=O)cc7F)CC6)CC5)C4)c(=O)c3c2)c1C#N (single isomer, unassigned) [Example 33] | 0.0326 | 8.77 |  |  |
| CCN(C)S(=O)(=O)Nc1ccc(F)c(Oc2ccc3ncn([C@H]4COC5(CCN(C(=O)CN6CCC(c7ccc(NC8CCC(=O)NC8=O)cc7F)CC6)CC5)C4)c(=O)c3c2)c1C#N (single isomer, unassigned) [Example 34] | 0.0299 | 10.8 |  |  |
| CCN(C)S(=O)(=O)Nc1ccc(F)c(Oc2ccc3ncn([C@H]4CCC5(CCN(C(=O)CN6CCC(c7ccc(NC8CCC(=O)NC8=O)cc7F)CC6)CC5)C4)c(=O)c3c2)c1C#N (single isomer, unassigned) [Example 40] | 0.00813 | 7.08 |  |  |
| CCN(C)S(=O)(=O)Nc1ccc(F)c(Oc2ccc3ncn([C@@H]4CCC5(CCN(C(=O)CN6CCC(c7ccc(NC8CCC(=O)NC8=O)cc7F)CC6)CC5)C4)c(=O)c3c2)c1C#N (single isomer, unassigned) [Example 41] | 0.0161 | 9.27 |  |  |
| CCN(C)S(=O)(=O)Nc1ccc(F)c(Oc2ccc3ncn([C@H]4COC5(CCN(C(=O)CN6CCC(c7ccc(NC8CCC(=O)NC8=O)cc7F)CC6)CC5)C4)c(=O)c3c2Br)c1C#N (single isomer, unassigned) [Example 73] | 0.0307 | 12 |  |  |
| CCN(C)S(=O)(=O)Nc1ccc(F)c(Oc2ccc3ncn([C@H]4COC5(CCN(C(=O)CN6CCC(c7ccc(NC8CCC(=O)NC8=O)cc7F)CC6)CC5)C4)c(=O)c3c2Cl)c1C#N (single isomer, unassigned) [Example 77] | 0.0318 | 9.51 |  |  |
| CCN(C)S(=O)(=O)Nc1ccc(F)c(Oc2ccc3ncn([C@@H]4COC5(CCN(C(=O)CN6CCC(c7ccc(NC8CCC(=O)NC8=O)cc7F)CC6)CC5)C4)c(=O)c3c2Cl)c1C#N (single isomer, unassigned) [Example 78] | 0.0497 | 9.7 |  |  |
| CCN(C)S(=O)(=O)Nc1ccc(F)c(Oc2ccc3ncn([C@H]4CCC5(CCN(C(=O)CN6CCC(c7ccc(NC8CCC(=O)NC8=O)cc7F)CC6)CC5)C4)c(=O)c3c2Cl)c1C#N (single isomer, unassigned) [Example 79] | 0.0201 | 12.9 |  |  |
| CCN(C)S(=O)(=O)Nc1ccc(F)c(Oc2ccc3ncn([C@@H]4CCC5(CCN(C(=O)CN6CCC(c7ccc(NC8CCC(=O)NC8=O)cc7F)CC6)CC5)C4)c(=O)c3c2Cl)c1C#N (single isomer, unassigned) [Example 80] | 0.0305 | 13.8 |  |  |
| CCN(C)S(=O)(=O)Nc1ccc(F)c(Nc2ccc3ncn([C@H]4COC5(CCN(C(=O)CN6CCC(c7ccc(NC8CCC(=O)NC8=O)cc7F)CC6)CC5)C4)c(=O)c3c2)c1C#N (single isomer, unassigned) [Example 82] | 0.0207 | 6.45 |  |  |
| CCN(C)S(=O)(=O)Nc1ccc(F)c(Oc2ccc3ncn([C@H]4COC5(CCN(C6CCC(c7ccc(NC8CCC(=O)NC8=O)cc7F)CC6)CC5)C4)c(=O)c3c2)c1C#N (single isomer, unassigned) [Example 83] | 0.0163 |  | 27.77% |  |
| CCN(C)S(=O)(=O)Nc1ccc(F)c(Oc2ccc3ncn([C@H]4COC5(CCN(C6CCC(c7ccc(NC8CCC(=O)NC8=O)cc7F)CC6)CC5)C4)c(=O)c3c2)c1C#N (single isomer, unassigned) [Example 131] |  |  | 8.5% and 8.05% |  |
| CCN(C)S(=O)(=O)Nc1ccc(F)c(Oc2ccc3ncn(C4COC5(CCN(C(=O)CN6CCC(c7ccc8c(C9CCC(=O)NC9=O)nn(C)c8c7)CC6)CC5)C4)c(=O)c3c2)c1C#N (single isomer, unassigned) [Example 150] | 0.0124 | 11.5 |  |  |
| CCN(C)S(=O)(=O)Nc1ccc(F)c(Oc2ccc3ncn([C@H]4COC5(CCN(C(=O)C[C@H]6CC[C@H](c7ccc8c(C9CCC(=O)NC9=O)nn(C)c8c7)CC6)CC5)C4)c(=O)c3c2)c1C#N (single isomer, unassigned) [Example 169] | 0.0119 | 31.5 |  |  |
| CCN(C)S(=O)(=O)Nc1ccc(F)c(Oc2ccc3ncn([C@H]4COC5(CCN(C(=O)C[C@H]6CC[C@@H](c7ccc8c(C9CCC(=O)NC9=O)nn(C)c8c7)CC6)CC5)C4)c(=O)c3c2)c1C#N (single isomer, unassigned) [Example 170] | 0.0309 | 21.2 |  |  |
| CCN(C)S(=O)(=O)Nc1ccc(F)c(Oc2ccc3ncn([C@H]4COC5(CCN(C(=O)CC6(O)CCN(c7cc8c(cc7F)c(N7CCC(=O)NC7=O)nn8C)CC6)CC5)C4)c(=O)c3c2F)c1C#N (single isomer, unassigned) [Example 174] | 0.0255 | 21.2 |  |  |
| CCN(C)S(=O)(=O)Nc1ccc(F)c(Nc2ccc3ncn([C@H]4COC5(CCN(C(=O)CC6(O)CCN(c7cc8c(cc7F)c(N7CCC(=O)NC7=O)nn8C)CC6)CC5)C4)c(=O)c3c2)c1C#N (single isomer, unassigned) [Example 178] | 0.00613 | 19.1 |  |  |
| CCN(C)S(=O)(=O)Nc1ccc(F)c(Oc2ccc3ncn([C@H]4COC5(CCN(C(=O)CC6(O)CCN(c7cc8c(cc7F)c(N7CCC(=O)NC7=O)nn8C)CC6)CC5)C4)c(=O)c3c2OC)c1C#N (single isomer, unassigned) [Example 181] | 0.0199 | 19.1 |  |  |
| CCN(C)S(=O)(=O)Nc1ccc(F)c(Nc2ccc3ncn([C@H]4COC5(CCN(C(=O)CC6(O)CCN(c7cc8c(cc7F)c(N7CCC(=O)NC7=O)nn8C)CC6)CC5)C4)c(=O)c3c2F)c1C#N (single isomer, unassigned) [Example 184] | 0.00855 | 18 |  |  |
| CCN(C)S(=O)(=O)Nc1ccc(F)c(Nc2ccc3ncn([C@H]4COC5(CCN(C(=O)CC6(O)CCN(c7cc8c(cc7F)c(N7CCC(=O)NC7=O)nn8C)CC6)CC5)C4)c(=O)c3c2Cl)c1C#N (single isomer, unassigned) [Example 185] | 0.00577 | 18.5 |  |  |
| CCN(C)S(=O)(=O)Nc1ccc(F)c(Nc2ccc3ncn([C@H]4COC5(CCN(C(=O)CC6CCN(c7cc8c(cc7F)c(N7CCC(=O)NC7=O)nn8C)CC6)CC5)C4)c(=O)c3c2F)c1C#N (single isomer, unassigned) [Example 202] | 0.00517 | 23.9 |  |  |
| CCN(C)S(=O)(=O)Nc1ccc(F)c(Oc2ccc3ncn([C@H]4COC5(CCN(C(=O)CN6CC[C@H](c7cc8c(cc7F)c(N7CCC(=O)NC7=O)nn8C)C(F)(F)C6)CC5)C4)c(=O)c3c2)c1C#N (single isomer, unassigned) [Example 203] | 0.0375 | 11.3 |  |  |
| CCN(C)S(=O)(=O)Nc1ccc(F)c(Oc2ccc3ncn([C@H]4COC5(CCN(C(=O)CN6CC[C@@H](c7cc8c(cc7F)c(N7CCC(=O)NC7=O)nn8C)C(F)(F)C6)CC5)C4)c(=O)c3c2)c1C#N (single isomer, unassigned) [Example 204] | 0.0298 | 10.9 |  |  |
| CCN(C)S(=O)(=O)Nc1ccc(F)c(Oc2ccc3ncc(C4COC5(CCN(C(=O)CC6(O)CCN(c7cc8c(cc7F)c(N7CCC(=O)NC7=O)nn8C)CC6)CC5)C4)nc3c2)c1C#N (single isomer, unassigned) [Example 222] | 0.02 | 24.4 |  |  |
| CCN(C)S(=O)(=O)Nc1ccc(F)c(Oc2ccc3ncc([C@H]4COC5(CCN(C(=O)CC6(O)CCN(c7cc8c(cc7F)c(N7CCC(=O)NC7=O)nn8C)CC6)CC5)C4)c(OC)c3c2)c1C#N (single isomer, unassigned) [Example 225] | > 5 | 65.3 |  |  |
| CCN(C)S(=O)(=O)Nc1ccc(F)c(Oc2ccc3ncc([C@@H]4COC5(CCN(C(=O)CC6(O)CCN(c7cc8c(cc7F)c(N7CCC(=O)NC7=O)nn8C)CC6)CC5)C4)c(OC)c3c2)c1C#N (single isomer, unassigned) [Example 226] | 0.0394 | 28.2 |  |  |
| CCN(C)S(=O)(=O)Nc1ccc(F)c(Oc2ccc3ncn(-c4cnc(N5CCN(C(=O)CN6CCC(c7ccc(NC8CCC(=O)NC8=O)cc7F)CC6)CC5)nc4)c(=O)c3c2N)c1C#N (stereo in doubt) [Example 102, 5-amino-6-[2-cyano-3-[[ethyl(methyl)sulfamoyl]amino]-6-fluorophenoxy]-3-[2-[4-[2-[4-[4-[[(3S)-2,6-dioxopiperidin-3-yl]amino]-2-fluorophenyl]piperidin-1-yl]acetyl]piperazin-1-yl]pyrimidin-5-yl]-4-oxoquinazoline] | 0.015 |  | 9.75% |  |
| CCN(C)S(=O)(=O)Nc1ccc(F)c(Oc2ccc3ncn(CCC4CCN(C(=O)CN5CCC(c6ccc(NC7CCC(=O)NC7=O)cc6F)CC5)CC4)c(=O)c3c2)c1C#N (centres unmarked) [Example 1, 6-[2-cyano-3-[[ethyl(methyl)sulfamoyl]amino]-6-fluorophenoxy]-3-[2-[1-[2-[4-[4-[(2,6-dioxopiperidin-3-yl)amino]-2-fluorophenyl]piperidin-1-yl]acetyl]piperidin-4-yl]ethyl]-4-oxoquinazoline] | 0.0469 | 13.9 |  |  |
| CCN(C)S(=O)(=O)Nc1ccc(F)c(Oc2ccc3ncn(CCC4CCN(C(=O)CN5CCC(c6ccc(C7CCC(=O)NC7=O)cc6F)CC5)CC4)c(=O)c3c2)c1C#N (centres unmarked) [Example 2, 6-[2-cyano-3-[[ethyl(methyl)sulfamoyl]amino]-6-fluorophenoxy]-3-[2-[1-[2-[4-[4-(2,6-dioxopiperidin-3-yl)-2-fluorophenyl]piperidin-1-yl]acetyl]piperidin-4-yl]ethyl]-4-oxoquinazoline] | 0.0486 | 13.5 |  |  |
| CCN(C)S(=O)(=O)Nc1ccc(F)c(Oc2ccc3ncn(CCC4CCN(C(=O)CN5CCC(c6ccc(NC7CCC(=O)NC7=O)c(F)c6)CC5)CC4)c(=O)c3c2)c1C#N (centres unmarked) [Example 3, 6-[2-cyano-3-[[ethyl(methyl)sulfamoyl]amino]-6-fluorophenoxy]-3-[2-[1-[2-[4-[4-[(2,6-dioxopiperidin-3-yl)amino]-3-fluorophenyl]piperidin-1-yl]acetyl]piperidin-4-yl]ethyl]-4-oxoquinazoline] | 0.0359 |  |  | 14.7 |
